How the values were obtained:
Assay type in all cases: in vivo
breast cancer 4T1 cells [1] = assay: Tumor inhibition rate r′10d, r′30d in 4T1 tumor-bearing BALB/c mice (Example 12, Table 18, series A); conditions: series A modeled mice, intratumoral injection twice at 3-day interval, 50 ul/mouse/time; for Series A r′10d (tumor inhibition rate): 10th day after 1st administration; for Series A r′30d (tumor inhibition rate): 30th day after 1st administration
Protocol: BALB/c mice were used as experimental subjects, in which modeled animals were used as series A and unmodeled animals as series B. Breast cancer 4T1 cells were use as modeling cells for modeled animals. 0.25×10^5 cells/animal were injected into the right axilla subcutaneously for transplantation tumor modeling, and the average tumor volume of successfully modeled nude mice was 173.6 mm^3. The modeled animals were randomly divided into 18 groups, with 10 animals in each group, and the drugs according to Table 18 was administered via intratumoral injection. BALB/c mice were additionally taken as experimental subjects without modeling, and randomly divided into 18 groups, with 10 animals in each group, the drugs according to Table 18 was administered via intramuscular injection into the right hind thigh. All the study drugs comprising probiotic components were formulated as aqueous formulations according to the preparation method of Example 1, and the other drugs were formulated as aqueous solutions according to the existing well-known methods. Each group was administered twice at an interval of 3 days, and the dosage was 50 ul/mouse/time.
On the 30th day after the first administration, each group of series A and each group of series B were subcutaneous cell transplantation of 1×10^5 breast cancer 4T1 cells/mouse and 0.2×10^5 fibroblast 3T3 cells/mouse respectively to left anterior axilla and left posterior axilla. The tumor incidence rates of 4T1 cell transplantation (S4T1) and of 3T3 cell transplantation (S3T3) in each group were observed on the 10th day after the cell transplantation, wherein the tumor incidence rate S=(number of tumor-bearing animals/number of cell transplanted animals)×100%.

breast cancer 4T1 cells [2] = assay: Short- and medium/long-term relative tumor proliferation rate in 4T1 tumor-bearing BALB/c mice (Example 10, Table 16); conditions: intratumoral injection, dosed twice at interval of 7 days, 100 μl/mouse/time; for relative tumor proliferation rate R7 d: day 7 after last dose; for relative tumor proliferation rate R21 d: day 21 after last dose
Description: (§1) V=0.5×a×b^2, wherein a and b represent the length and width of the local lesion, respectively; Volume of the local lesion (e.g. tumor):
(§2) Local lesion (e.g., tumor) proliferation rate (R)=TV/CV×100, wherein TV and CV are the local lesion volumes in the study group and negative control group, respectively;
The method for determining the effect of combined drug administration in animal experiments was Burgi method (Burgi Y. Pharmacology; Drug actions and reactions. Cancerres. 1978, 38(2), 284-285). The Burgi method was modified by Zhengjun JIN (Zhengjun JIN, Equal probability and curve and “Q50”, Journal of the Second Shanghai Medical College; 1981, 1, 75-86) with q calculated as: q=EA+B/(EA+EB−EA×EB). In the following examples of the present invention, the combinational pharmaceutical efficacies (drug efficacies) of drug A and drug B co-administration was determined by ratio q of actual pharmaceutical efficacy (drug efficacy)/theoretical pharmaceutical efficacy (drug efficacy) according to Zhengjun JIN method, as follows.
BALB/c mice were used as experimental subjects, and breast cancer 4T1 cells were used as modeling cells. 0.5×10^6 cells/mouse were injected into the right axilla subcutaneously for transplantation tumor modeling, and the average tumor volume of successfully modeled nude mice was 107.4 mm^3. The model animals were randomly divided into 17 groups.
The drugs, formulated according to the method of Example 1, were administered according to Table 16. Each group was dosed twice with an interval of 7 days, and the injection volumes were 300 μl/mouse/time for groups 13 and 14, 100 μl/mouse/time for other groups. The drugs were administered by subaxillary administration of the right forelimb for group 15, and by intratumoral injection for other groups. Group 16 was administered sequentially (the first dose was aprobiotic semi-fluid-like component/cytotoxic drug/weak local acting compound, and the last dose was inactivated probiotics), while the other groups were administered with the same drug twice. On days 7 and 21 after the last dose, the tumor volumes of each group were measured (V7d, V21d), and the relative tumor proliferation rates (R7d, R21d) were calculated relative to the negative control group, respectively, so that the short-term therapeutic effectiveness (100%−R7d) and the medium- and long-term therapeutic effectiveness (100%−R21d) could be calculated, respectively.

breast cancer 4T1 cells [3] = assay: Extra-tumoral local administration in 4T1 tumor-bearing BALB/c mice, R7d/R21d (Example 11, Table 17); conditions: subaxillary intradermal (extra-tumoral), twice at 7-day interval, 120 μl/mouse/time; for R7 d (relative tumor proliferation rate): day 7 after last dose; for R21 d (relative tumor proliferation rate): day 21 after last dose
Protocol: as §1, §2
In the following examples of the present invention, the combinational pharmaceutical efficacies (drug efficacies) of drug A and drug B co-administration was determined by ratio q of actual pharmaceutical efficacy (drug efficacy)/theoretical pharmaceutical efficacy (drug efficacy) according to Zhengjun JIN method, as follows.
BALB/c mice were used as experimental subjects, and breast cancer 4T1 cells were used as modeling cells. 0.25×10^5 cells/mouse were injected into the right axilla subcutaneously for transplantation tumor modeling. On the 5th day after modeling, the test animals with visually obvious tumors were randomly divided into 12 groups, having 10 animals in each group. […] In groups 1-11, on days 7 and 21 after the last dose the tumor volume (V7d, V21d) were measured, and the relative tumor proliferation rates (R7d, R21d) were calculated relative to the negative control group on days 7 and 21 after the dose, so that the short-term therapeutic effectiveness (100%−R7d) and the medium- and long-term therapeutic effectiveness (100%−R21d) could be calculated, respectively. Further, based on the short-term therapeutic effectiveness and the medium- and long-term therapeutic effectiveness, the actual/expected ratio for short-term pharmaceutical efficacies q7d and the actual/expected ratio for medium- and long-term pharmaceutical efficacies q21d were calculated respectively.

[4] = tested on: outer lateral muscle mass of the right leg; assay: Local effect on normal muscle tissue, area of abnormal regions, BALB/c mice (Example 9, Table 15); conditions: dosed once into muscle, 100 ul/mouse, 7th day
Protocol: BALB/c mice were used as experimental subjects, and the model animals were randomly divided into 4 groups, having 6 animals in each group. The drugs were administered according to Table 15. […] On the 7th day after drug administration, the animals were euthanized. The specimens of the outer lateral muscle mass of the right leg were taken out by autopsy, and perform a general pathological analysis. The sections were measured for the area of abnormal regions such as necrosis and nodules that distinguished from normal muscle.

[5] = tested on: outer lateral muscle mass of the right leg; assay: Local effect on normal muscle tissue, area of abnormal regions, nude mice
Protocol: The animals were euthanized on the 7th day after drug administration, and the specimens of the outer lateral muscle mass of the right leg from the nude mice were taken out by autopsy, and the areas of abnormal regions different from normal muscles, such as of necrosis and nodules, were measured after sectioning and washing.
Each group was dosed once with an injection volume of 100 μl/mouse by administering to the outer lateral muscle mass of the right leg. On the 7th day after drug administration, the animals were euthanized, and the specimens of the outer lateral muscle mass of the right leg were taken out after dissection to perform a general pathological analysis. The sections were measured for the area of abnormal regions that distinguished from normal muscle, such as necrosis and nodules.

SMILES | Series A r′10d (tumor inhibition rate) (breast cancer 4T1 cells [1]) | Series A r′30d (tumor inhibition rate) (breast cancer 4T1 cells [1]) | relative tumor proliferation rate R7 d (breast cancer 4T1 cells [2]) | relative tumor proliferation rate R21 d (breast cancer 4T1 cells [2]) | R7 d (relative tumor proliferation rate) (breast cancer 4T1 cells [3]) | R21 d (relative tumor proliferation rate) (breast cancer 4T1 cells [3]) | Area of abnormal regions [4] | Area of abnormal regions (necrosis, nodules) ([5]; dosed once into muscle 100 μl/mouse, 7th day (b197 experiment)) | Areas of the abnormal regions (necrosis, nodules) ([5]; injection into muscle 100 ul/mouse, 7th day (b168 experiment))
O=c1[nH]cc(F)c(=O)[nH]1 [1% 5-fluorouracil, 5-fluorouracil] | 38.5% | 6.1% | 51% | 93% | 73% | 93% |  |  | 
CCO [75% ethanol, ethanol] | 42.1% | 3.2% | 47% | 95% | 92% | 107% | 33.16 ± 13.44 mm^2 | 32.24±13.71 mm^2 | 35.14±15.92 mm^2
